Source: patent US10023560B2, “Crystalline salt form of (S)-(2-(6 chloro-7-methyl-1H-benzo[d]imidazol-2-yl)-2-methylpyrrolidin-1-yl)(5-methoxy-2-(2H-1,2,3-triazol-2-yl)phenyl)methanone as orexin receptor antagonist” (priority 2013, dated 2018)

Columns and labels:
rodents [1] = conditions: induced by repeated amphetamine administration in rodents; cited from earlier work
rodents [2] = conditions: cited from earlier work
[3] = Gravimetric vapour sorption (GVS) analysis; type: physicochemical
Method: Gravimetric Vapour Sorption (GVS) Analysis
The sample was allowed to equilibrate at 40% RH before starting a pre-defined humidity program (40-0-95-0-95-40% RH, steps of 5% ΔRH and with a maximal equilibration time of 24 hours per step were applied. About 20 to 30 mg of each sample was used. The hygroscopic classification is done according to the European Pharmacopeia Technical Guide (1999, page 86), e.g., slightly hygroscopic: increase in mass is less than 2% and equal to or greater than 0.2% mass/mass; hygroscopic: increase in mass is less than 15% and equal to or greater than 2% mass/mass. The mass change between 40% relative humidity and 80% relative humidity in the first adsorption scan is considered.

Wistar rats = test: Sedative effects: EEG, EMG and behavioural indices of alertness by radiotelemetry; type: in vivo; conditions: 30 mg/kg po, effects analyzed over 6 hours
Method: Sedative Effects: EEG, EMG and Behavioural Indices of Alertness Recorded by Radiotelemetry In Vivo in Wistar Rats.
Electroencephalography (EEG) and Electromyography (EMG) signals were measured by telemetry using TL11M2-F20-EET miniature radiotelemetric implants (Data Science Int.) with two pairs of differential leads.
Surgical implantation was performed under general anesthesia with Ketamin/Xylazin, for cranial placement of one differential pair of EEG electrodes and one pair of EMG leads inserted in either side of the muscles of the neck. After surgery, rats recovered in a thermoregulated chamber and received analgesic treatment with subcutaneous buprenorphine twice a day for 2 d. They were then housed individually and allowed to recover for a minimum of 2 weeks. Thereafter, rats—in their home cage—were placed in a ventilated sound-attenuating box, on a 12-h light/12-h dark cycle, for acclimatization before continuous EEG/EMG recordings started. The telemetric technology that we used in this study allows accurate and stress-free acquisition of biosignals in rats placed in their familiar home cage environment, with no recording leads restricting their movements. Variables analyzed included four different stages of vigilance and sleep, spontaneous activity in the home cage and body temperature. Sleep and wake stages were evaluated using a rodent scoring software (Somnologica Science) directly processing electrical biosignals on 10 s contiguous epochs. The scoring is based on frequency estimation for EEG and amplitude discrimination for EMG and locomotor activity. Using these measurements, the software determines the probability that all components within each epoch best represent active waking (AW), quiet waking (QW), non-REM-sleep (NREM) or REM-sleep (REM). The percentage of total time spent in AW, QW, NREM- and REM-sleep was calculated per 12 h light or dark period. The latency to the onset of the first significant NREM- and REM-sleep episodes and the frequency and duration of those episodes were also calculated. […] All variables were subsequently recorded for 12 h following administration of the orexin receptor antagonist.

rat [4] = conditions: rat model; cited from earlier work
fasted hungry rats = fasted hungry rats exposed to food odors; cited from earlier work
[5] = test system: amyloid precursor protein transgenic mice; conditions: after acute sleep restriction; cited from earlier work
mouse = mouse model of depression, administered chronically; cited from earlier work
humans = conditions: indication primary insomnia; cited from earlier work
rats [6] = conditions: rats treated with the compound; cited from earlier work
rat [7] = conditions: animal model of conditioned fear; cited from earlier work
rat [8] = conditions: cited from earlier work
rats [9] = conditions: cited from earlier work

Cn1c(SCC(=O)N2CCC[C@H]2C(=O)Nc2ccccc2-c2ccccc2)nc2ccccc21 [N-biphenyl-2-yl-1-{[(1-methyl-1H-benzimidazol-2-yl)sulfanyl]acetyl}-L-prolinamide]
behavioral (locomotor sensitization) and molecular (transcriptional responses) changes (rodents [1]): reduced
nicotine-reinstatement for a conditioned reinforcer (rodents [2]): inhibited

COc1ccc(-n2nccn2)c(C(=O)N2CCC[C@@]2(C)c2nc3c(C)c(Cl)ccc3[nH]2)c1 [COMPOUND, (S)-(2-(6-chloro-7-methyl-1H-benzo[d]imidazol-2-yl)-2-methylpyrrolidin-1-yl)(5-methoxy-2-(2H-1,2,3-triazol-2-yl)phenyl)methanone]
Hygroscopicity: sorption of moisture ([3]; humidity program 40-0-95-0-95-40% RH, 25° C.): ≤ 2.7 % moisture mass/mass
effect on NREM sleep compared to vehicle controls (Wistar rats): +27%
effect on REM sleep compared to vehicle controls (Wistar rats): +53%
effect on active wake compared to vehicle controls (Wistar rats): −24%
effect on home cage activity compared to vehicle controls (Wistar rats): −31%

CNC(=O)[C@@H](c1ccccc1)N1CCc2cc(OC)c(OC)cc2[C@@H]1CCc1ccc(C(F)(F)F)cc1 [(2R)-2-{(1S)-6,7-dimethoxy-1-[2-(4-trifluoromethyl-phenyl)-ethyl]-3,4-dihydro-1H-isoquinolin-2-yl}-N-methyl-2-phenyl-acetamide]
activity in nicotine self-administration (rat [4]): displayed pharmacological activity
natural activation induced by orexin A (fasted hungry rats): attenuate
brain levels of amyloid-beta (Aβ) and Aβ plaque deposition [5]: decreased
antidepressant-like activity (mouse): induce antidepressant-like activity
clinical efficacy (humans): showed clinical efficacy
declarative and non-declarative learning and memory (rats [6]): intact
activity in rat fear-potentiated startle paradigm (rat [7]): active
alertness (active wake and locomotion) (rat [8]): decrease alertness
time spent in REM and NREM sleep (rat [8]): dose-dependently increase
cardiovascular responses to conditioned fear and novelty exposure (rats [9]): attenuated

COc1ccc(-n2nccn2)c(C(=O)N2CCC[C@@]2(C)c2nc3ccc(Cl)c(C)c3[nH]2)c1.Cl [COMPOUND hydrochloride, (S)-(2-(6-chloro-7-methyl-1H-benzo[d]imidazol-2-yl)-2-methylpyrrolidin-1-yl)(5-methoxy-2-(2H-1,2,3-triazol-2-yl)phenyl)methanone hydrochloride]
Hygroscopicity classification ([3]; 25° C., European Pharmacopeia Technical Guide classification): Non hygroscopic (mass change smaller then
Hygroscopicity: mass change ([3]; between 40% and 80% relative humidity, first adsorption scan, 25° C.): < 0.1%
Sorption behavior between cycles ([3]; first to second cycle): Reproducible, cycle independent
